# Source: patent publication US11124518B2, “L,2-dihydro-3H-pyrazolo[3,4-D]pyrimidin-3-one analogs” (Recurium IP Holdings, LLC, priority 2017, dated 2021)
# Counter-ions that a name gives are not always drawn.
# Experiments:
# SW480 cells = experiment: SW480 Cellular Proliferation Assay (CellTiter-Glo); format: cell-based; conditions: Homo sapiens, 96 h, 4 days
# Protocol: (§1) Cells were treated with compounds diluted in DMSO and a 10 point 3-fold serial dilutions. Plates were placed in 37° C., 5% CO2 for to incubate for 4 days. Before they were developed by adding 100 μL of CellTiter-Glo reagent (Promega) to the assay plate, plates were shaken briefly for 2 mins and allowed to incubate at RT for 60 mins. The bottom of the plates was pasted with white back seal and luminescence was recorded with Enspire or Envision.
# Wee1 kinase = Wee1 kinase (Homo sapiens (Human), UniProt P30291); experiment: Wee1 Binding Assay (FRET); conditions: Wee1 kinase 2 nM, tracer 178 50 nM, 60 min at RT, read-out: Wee1 Enzymatic IC50
# Chain of Wee1 kinase (P30291 whole entry): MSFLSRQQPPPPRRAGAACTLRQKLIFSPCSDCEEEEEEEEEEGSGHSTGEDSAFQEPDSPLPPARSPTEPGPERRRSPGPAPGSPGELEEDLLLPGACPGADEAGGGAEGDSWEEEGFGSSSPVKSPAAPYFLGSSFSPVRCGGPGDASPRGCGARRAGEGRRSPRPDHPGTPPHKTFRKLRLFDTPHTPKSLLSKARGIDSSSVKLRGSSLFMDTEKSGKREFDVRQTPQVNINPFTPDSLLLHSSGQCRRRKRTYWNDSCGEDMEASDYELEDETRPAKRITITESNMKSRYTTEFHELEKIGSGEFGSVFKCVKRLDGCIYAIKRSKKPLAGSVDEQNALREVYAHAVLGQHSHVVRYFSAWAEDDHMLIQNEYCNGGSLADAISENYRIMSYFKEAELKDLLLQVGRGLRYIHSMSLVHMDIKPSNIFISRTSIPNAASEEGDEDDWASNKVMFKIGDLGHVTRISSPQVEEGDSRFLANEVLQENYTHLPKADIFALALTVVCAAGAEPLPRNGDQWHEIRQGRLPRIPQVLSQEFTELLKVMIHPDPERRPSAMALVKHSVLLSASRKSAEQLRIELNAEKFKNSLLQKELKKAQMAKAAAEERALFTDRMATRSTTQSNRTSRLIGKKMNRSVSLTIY
# Protocol: Wee 1 kinase was determined by using Flurorescence Resonance Energy Transfer (FRET) assay. […] The plate was shaken for 30 seconds, incubated for 60 min at RT, and recorded on fluorescence plate reader.
# H23 cells = experiment: H23 Cellular Proliferation Assay (CellTiter-Glo); format: cell-based; conditions: Homo sapiens, NCI-H23, 96 h, 4 days
# Protocol: as §1, with “a 9” for “a 10”, “point 5-fold” for “point 3-fold”, “CO2” for “CO2 for”, “for 10” for “for 60”, “mins. The plates are read with a M5e plate reader according to CellTiter-Glo protocol. The GraphPad Prism software was used to get IC50 values.” for “mins.”
SMILES,IC50 (SW480 cells),IC50 (Wee1 kinase),IC50 (H23 cells)
"C=CCn1c(=O)c2cnc(Nc3ccc4c(c3)CN(CCO)CC4)nc2n1-c1cccc(C(C)(C)O)n1 [Example 13, 2-Allyl-6-((2-(2-hydroxyethyl)-1,2,3,4-tetrahydroisoquinolin-7-yl)amino)-1-(6-(2-hydroxypropan-2-yl)pyridin-2-yl)-1,2-dihydro-3H-pyrazolo[3,4-d]pyrimidin-3-one hydrochloride]",> 1000 nM,< 10 nM,100 to 1000 nM
"C=CCn1c(=O)c2cnc(Nc3ccc4c(c3)C(=O)NCC4)nc2n1-c1cccc(C(C)(C)O)n1 [Example 19, 7-((2-Allyl-1-(6-(2-hydroxypropan-2-yl)pyridin-2-yl)-3-oxo-2,3-dihydro-1H-pyrazolo[3,4-d]pyrimidin-6-yl)amino)-3,4-dihydroisoquinolin-1(2H)-one]",> 1000 nM,< 10 nM,> 1000 nM
"C=CCn1c(=O)c2cnc(Nc3ccc4c(c3)CNCC4)nc2n1-c1cccc(C(C)(C)O)n1 [Example 6, 2-Allyl-1-(6-(2-hydroxypropan-2-yl)pyridin-2-yl)-6-((1,2,3,4-tetrahydroisoquinolin-7-yl)amino)-1,2-dihydro-3H-pyrazolo[3,4-d]pyrimidin-3-one hydrochloride]",100 to 1000 nM,< 10 nM,100 to 1000 nM
"C=CCn1c(=O)c2cnc(Nc3ccc4c(c3)CCNC4)nc2n1-c1cccc(C(C)(C)O)n1 [Example 15, 2-Allyl-1-(6-(2-hydroxypropan-2-yl)pyridin-2-yl)-6-((1,2,3,4-tetrahydroisoquinolin-6-yl)amino)-1,2-dihydro-3H-pyrazolo[3,4-d]pyrimidin-3-one hydrogen chloride]",> 1000 nM,< 10 nM,100 to 1000 nM
"C=CCn1c(=O)c2cnc(Nc3ccc4c(c3)CN(C)CC4)nc2n1-c1cccc(C(C)(C)O)n1 [Example 5, 2-Allyl-1-(6-(2-hydroxypropan-2-yl)pyridin-2-yl)-6-((2-methyl-1,2,3,4-tetrahydroisoquinolin-7-yl)amino)-1,2-dihydro-3H-pyrazolo[3,4-d]pyrimidin-3-one]",100 to 1000 nM,< 10 nM,< 100 nM
